pIC50: −log10 of the molar value.

The test system of the assay is AKT protein phosphorylated on serine 473 (pAKT-S473). In words: Study of pAKT expression in PC3 human prostate carcinoma cells measured by western blotting (Test A). The note with it: PC-3, inhibition of AKT phosphorylation (pAKT-S473), 1 to 2 hours incubation, absolute IC50, mean of two experiments. Format: cell-based. The protocol: The inhibitory activity of the molecules on AKT phosphorylation is measured either by western blotting using the technique described below, or by the MSD Multi-spot Biomarker detection technique from Meso Scale Discovery also described below.
Study of pAKT Expression in PC3 Human Prostate Carcinoma Cells Measured by Western Blotting (Test A):
On day 2, the cells are incubated in the presence or absence of the test products for 1 to 2 hours at 37° C. in the presence of 5% CO2. The molecules, diluted in dimethyl sulphoxide (DMSO Sigma #D2650), are added from a 10-times concentrated stock solution, the final percentage of DMSO being 0.1%. The molecules are tested either at a single concentration of less than or equal to 10 μM, or at increasing concentrations in a range that can extend from less than 1 nM to 10 μM.
After this incubation, the cells are lysed for the preparation of the proteins.
The lysate is centrifuged for 10 min at 6000 rpm. 155 μl of supernatant are recovered. 150 μl are incubated for denaturation for 5 min at 95° C. in the presence of 4× NuPAGE LDS Sample Buffer diluted 4-fold (InVitrogen ref NP0007) and of 10× NuPAGE Sample Reducing Agent diluted 10-fold (InVitrogen ref NP0009). These samples are then frozen at −20° C.
The gel is then transferred on to an Invitrolon PVDF membrane (Invitrogen #LC2007) permeabilised beforehand and for a few seconds in ethanol (Ethanol Fischer Scientific #E/0600DF/15).
The transfer is carried out in a Biorad tank at 30 volts overnight or at 60 volts for 3 hours, in the presence of 20× NUPAGE Transfer Buffer diluted 20-fold (InVitrogen ref NP0006).
The membrane is then saturated in saturating solution composed of TBS (10× Tris Buffered Saline, Sigma #T5912, diluted 10-fold), 0.1% Tween (Sigma #P5927) and 3% BSA (Bovine Albumin Serum Fraction V, Sigma #A4503) for 6 h after overnight transfer or else for 1 h after transfer for a period of 3 h.
Two rinses for min in washing solution composed of TBS and 0.1% Tween 20 are carried out before hybridisation of the secondary antibodies.
The secondary antibodies are diluted 110000th for the rabbit anti-Mouse IgG HRP antibody (W402 Promega) and to 110000th for the goat anti-Rabbit IgG HRP antibody (W401 Promega) in saturating solution, and then shaken for 1 h at ambient temperature.
Two rinses for 30 min in washing solution are carried out and then a rinse for 5 min in H2O is carried out in order to eliminate the remaining Tween 20.
The luminescence is read with the FujiFilm device (Ray Test).
The FUJI device measures the total luminescence signal obtained (AU) for each band selected. It then subtracts the background noise (BG) proportional to the size of the band selected (Area), said background noise being calculated from a specific background noise band, with a view to obtaining the specific signal (AU-BG) for each band. The band obtained in the absence of product and in the presence of 0.1% DMSO is considered to be the 100% signal. The software calculates the % specific activity (Ratio) obtained for each band selected as a function of this 100% signal. The percentage inhibition is calculated for each concentration according to the formula (100%−Ratio).
Two independent experiments make it possible to calculate the mean of the percentages of inhibition obtained at a given concentration for the products tested only at one concentration.
Two independent experiments make it possible to calculate the mean of the IC50s.
(In western blotting, separated proteins are transferred to a membrane and probed.)
With `O=C(Cc1nc(N2CCOCC2)cc(=O)[nH]1)Nc1cccc(I)c1` [Example 56, N-(3-iodophenyl)-2-[4-(morpholin-4-yl)-6-oxo-1,6-dihydropyrimidin-2-yl]acetamide], the pIC50 (usually the negative decadic logarithm of the IC50, by convention in mol/L) was 6.86. In the case of `COc1cc(NC(=O)Cc2nc(N3CCOCC3)cc(=O)[nH]2)ccc1F` [Example 8, N-(4-fluoro-3-methoxyphenyl)-2-[4-(morpholin-4-yl)-6-oxo-1,6-dihydropyrimidin-2-yl]acetamide], the pIC50 is 6.50. Compound `O=C(Cc1nc(N2CCOCC2)cc(=O)[nH]1)Nc1cc(F)ccc1O` [Example 65, N-(5-fluoro-2-hydroxyphenyl)-2-[4-(morpholin-4-yl)-6-oxo-1,6-dihydropyrimidin-2-yl]acetamide] gave a pIC50 of 5.19. This pIC50 lies 1.31 log units lower than the previous one. The result for `O=C(Cc1nc(N2CCOCC2)cc(=O)[nH]1)Nc1ccccc1F` [Example 9, N-(2-fluorophenyl)-2-[4-(morpholin-4-yl)-6-oxo-1,6-dihydropyrimidin-2-yl]acetamide] reads 6.14; that for `C#Cc1cccc(NC(=O)Cc2nc(N3CCOCC3)cc(=O)[nH]2)c1` [Example 48, N-(3-ethynylphenyl)-2-[4-(morpholin-4-yl)-6-oxo-1,6-dihydropyrimidin-2-yl]acetamide], 6.74; that for `O=C(Cc1nc(N2CCOCC2)cc(=O)[nH]1)Nc1ccc(F)cc1` [Example 2, N-(4-fluorophenyl)-2-[4-(morpholin-4-yl)-6-oxo-1,6-dihydropyrimidin-2-yl]acetamide], 6.49. The compound `O=C(Cc1nc(N2CCOCC2)cc(=O)[nH]1)Nc1cccc(OC(F)F)c1` [Example 38, N-[3-(difluoromethoxy)phenyl]-2-[4-(morpholin-4-yl)-6-oxo-1,6-dihydropyrimidin-2-yl]acetamide] gave a pIC50 of 6.32. Compound `Cc1cc(NC(=O)Cc2nc(N3CCOCC3)cc(=O)[nH]2)ccc1F` [Example 28, N-(4-fluoro-3-methylphenyl)-2-[4-(morpholin-4-yl)-6-oxo-1,6-dihydropyrimidin-2-yl]acetamide] gave a pIC50 of 6.77.

Consider `O=C(Cc1nc(N2CCOCC2)cc(=O)[nH]1)Nc1cccc(Cl)c1` [Example 3, N-(3-chlorophenyl)-2-[4-(morpholin-4-yl)-6-oxo-1,6-dihydropyrimidin-2-yl]acetamide], for which the pIC50 is 7.00. The result for `O=C(Cc1nc(N2CCOCC2)cc(=O)[nH]1)Nc1ccc(Cl)cc1` [Example 15, N-(4-chlorophenyl)-2-[4-(morpholin-4-yl)-6-oxo-1,6-dihydropyrimidin-2-yl]acetamide] reads 5.85; that for `O=C(Cc1nc(N2CCOCC2)cc(=O)[nH]1)N1CCOc2ccccc21` [Example 62, 2-[2-(2,3-dihydro-4H-1,4-benzoxazin-4-yl)-2-oxoethyl]-6-(morpholin-4-yl)pyrimidin-4(3H)-one], 6.28; that for `CC(C)Oc1cccc(NC(=O)Cc2nc(N3CCOCC3)cc(=O)[nH]2)c1` [Example 44, 2-[4-(morpholin-4-yl)-6-oxo-1,6-dihydropyrimidin-2-yl]-N-[3-(propan-2-yloxy)phenyl]acetamide], 6.51. In the case of `O=C(Cc1nc(N2CCOCC2)cc(=O)[nH]1)Nc1cccc(OCCO)c1` [Example 55, N-[3-(2-hydroxyethoxy)phenyl]-2-[4-(morpholin-4-yl)-6-oxo-1,6-dihydropyrimidin-2-yl]acetamide] it was 5.00. The result for `O=C(Cc1nc(N2CCOCC2)cc(=O)[nH]1)Nc1cccc(O)c1` [Example 32, N-(3-hydroxyphenyl)-2-[4-(morpholin-4-yl)-6-oxo-1,6-dihydropyrimidin-2-yl]acetamide] reads 5.44; that for `Cc1cccc(NC(=O)Cc2nc(N3CCOCC3)cc(=O)[nH]2)c1` [Example 23, N-(3-methylphenyl)-2-[4-(morpholin-4-yl)-6-oxo-1,6-dihydropyrimidin-2-yl]acetamide], 7.41. `CC(C)c1cccc(NC(=O)Cc2nc(N3CCOCC3)cc(=O)[nH]2)c1` [Example 22, 2-[4-(morpholin-4-yl)-6-oxo-1,6-dihydropyrimidin-2-yl]-N-[3-(propan-2-yl)phenyl]acetamide] showed a pIC50 of 6.46.

These data come from US8993565B2, “(6-oxo-1,6-dihydropyrimidin-2-yl)amide derivatives, preparation thereof and pharmaceutical use thereof as AKT(PKB) phosphorylation inhibitors” (Sanofi, priority 2009, dated 2015).
